Test results as given in patent US9174980B2, “Heterocyclic compounds as inhibitors of leukotriene production” (Boehringer Ingelheim International GmbH, priority 2012, dated 2015).

Key:
[1] = tested on: synthesis of LTB4 in human whole blood; test: Human whole blood assay (calcimycin-stimulated LTB4 synthesis); type: cell-based; conditions: Homo sapiens; read-out: Human Whole Blood LTB4 Assay for FLAP (IC50 nM)
Description: Compounds are additionally tested in a human whole blood assay to determine their ability to inhibit the synthesis of LTB4 in a cellular system. Compounds are combined with heparinized human whole blood and incubated for 15 minutes at 37° C. Calcimycin (20 μM final, prepared in phosphate-buffered saline, pH 7.4) is then added and the mixture is incubated for another 30 minutes at 37° C. The samples are centrifuged for 5 min at low speed (1500×g) and the plasma layer is removed. Plasma LTB4 concentrations are then measured using an antibody-based homogenous time-resolved fluorescence method (CisBio, Bedford, Mass.).

[2] = biological target: T1, recombinant human FLAP protein (Homo sapiens, UniProt P20292); test: FLAP binding assay (Scintillation Proximity Assay, displacement of [125I]L-691,831); conditions: read-out: Human FLAP SPA Binding (IC50 nM)
T1 construct: made in house; host or cells: Sf9 insect cells (membrane fraction, 100,000 x g pellet)
T1 sequence (P20292 1-161): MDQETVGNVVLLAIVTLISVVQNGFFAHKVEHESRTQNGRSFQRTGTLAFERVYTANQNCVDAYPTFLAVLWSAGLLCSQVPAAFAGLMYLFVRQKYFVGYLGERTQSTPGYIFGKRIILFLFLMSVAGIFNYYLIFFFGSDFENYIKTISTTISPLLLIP
Description: Compounds are assessed for the ability to bind to FLAP in a binding assay that measures compound-specific displacement of an iodinated (^125I) FLAP inhibitor via a Scintillation Proximity Assay format (adapted from S. Charleson et al., Mol. Pharmacol., 1992, 41, 873-879).
Cell pellets produced from sf9 insect cells expressing recombinant human FLAP protein are resuspended in buffer A [15 mM Tris-HCl (pH 7.5), 2 mM MgCl2, 0.3 mM EDTA, 1 mM PMSF]. The cells are lysed with a Dounce homogenizer and the material is centrifuged at 10,000×g for 10 minutes. The supernatant is then collected and centrifuged at 100,000×g for 60 minutes. To prepare membrane protein for an assay, an aliquot of the 100,000×g pellet is resuspended in 1 ml of buffer A, Dounce homogenized, and finally subjected to polytron mixing (30 seconds). Membrane protein (25 μl, 5 μg) is mixed with WGA SPA beads (Amersham) and stirred for 1 h. To an assay plate (Perkin Elmer FlexiPlate) is added 25 μl of test compound prepared in Binding buffer [100 mM Tris (pH 7.5), 140 mM NaCl, 5% glycerol, 2 mM EDTA, 0.5 mM TCEP, 0.05% Tween 20], 25 μl of [^125I]L-691,831 (an iodinated analog of MK-591, Charleson et al. Mol. Pharmacol., 41, 873-879, 1992) and finally 50 μl of the bead/protein mixture. (final concentrations: beads, 200 μg/well; protein, 5 μg/well; [^125I] probe, 0.08 nM/well (17 nCi/well). The plates are shaken for 2 h before reading on a Microbeta plate reader. Non-specific binding is determined by the addition of 10 μM cold L-691,831 compound.

IC50 [1] [nM] | IC50 [2] [nM] | SMILES
1500 | 12 | Nc1ncc(-c2ccc(C3(c4nnc(-c5ccc(F)cc5)[nH]4)CCC3)cn2)cn1 [Example 143, 5-(5-{1-[5-(4-fluorophenyl)-4H-1,2,4-triazol-3-yl]cyclobutyl}pyridin-2-yl)pyrimidin-2-amine]
680 | 4 | Cc1ccc(-c2cc(C3(c4ccc(-c5cnc(N)nc5)cc4)CCC3)[nH]n2)cn1 [Example 18, 5-(4-{1-[5-(6-methylpyridin-3-yl)-1H-pyrazol-3-yl]cyclobutyl}phenyl)pyrimidin-2-amine]
890 | 7 | Cc1cc(C2(c3c[nH]c4ccccc34)CCC2)ccc1-c1cnc(N)nc1 [Example 151, 5-{4-[1-(1H-indol-3-yl)cyclobutyl]-2-methylphenyl}pyrimidin-2-amine]
100 | 1.1 | Nc1ncc(-c2ccc(C3(c4c[nH]c5c(C(=O)N6CC(O)C6)cccc45)CCC3)cc2)cn1 [Example 113, (3-{1-[4-(2-aminopyrimidin-5-yl)phenyl]cyclobutyl}-1H-indol-7-yl)(3-hydroxyazetidin-1-yl)methanone]
210 | 2.1 | CN(C)C(=O)c1cccc2c(C3(c4ccc(-c5cnc(N)nc5)cc4)CCC3)c[nH]c12 [Example 7, 3-{1-[4-(2-aminopyrimidin-5-yl)phenyl]cyclobutyl}-N,N-dimethyl-1H-indole-7-carboxamide]
310 | 1.7 | CN1CCN(C(=O)c2cccc3c(C4(c5ccc(-c6cnc(N)nc6)cc5)CCC4)c[nH]c23)CC1 [Example 146]
390 | 87 | CC(C)C(C)(c1ccc(-c2cnc(N)nc2)nc1)c1nc(-c2cnn(C)c2)co1 (stereo not drawn) [Example 168, 5-(5-{3-methyl-2-[4-(1-methyl-1H-pyrazol-4-yl)-1,3-oxazol-2-yl]butan-2-yl}pyridin-2-yl)pyrimidin-2-amine]
81 | 2.9 | Nc1ncc(-c2ccc(C3(c4ncc(-c5cn[nH]c5)s4)CCC3)cc2)cn1 [Example 178, 5-(4-{1-[5-(1H-pyrazol-4-yl)-1,3-thiazol-2-yl]cyclobutyl}phenyl)pyrimidin-2-amine]
> 5000 | 380 | Nc1ncc(-c2ccc(C3(c4nc5ccccc5[nH]4)CCOCC3)cc2)cn1 [Example 75, 5-{4-[4-(1H-benzimidazol-2-yl)tetrahydro-2H-pyran-4-yl]phenyl}pyrimidin-2-amine]
460 | 3.4 | CC(C)C(C)(c1ccc(-c2cnc(N)nc2)cc1)c1cn(Cc2ccc(Cl)cc2)c2ncccc12 (stereo not drawn) [Example 34, 5-(4-{2-[1-(4-chlorobenzyl)-1H-pyrrolo[2,3-b]pyridin-3-yl]-3-methylbutan-2-yl}phenyl)pyrimidin-2-amine]
> 5000 | 510 | Cc1ccc(-c2cc(C3(c4ccc(-c5cnc(N)nc5)cc4)CCC3)n(C)n2)cn1 [Example 19, 5-(4-{1-[1-methyl-3-(6-methylpyridin-3-yl)-1H-pyrazol-5-yl]cyclobutyl}phenyl)pyrimidin-2-amine]
1500 | 87 | Nc1ncc(-c2ccc(C3(c4c[nH]c5ccncc45)CCC3)cc2)cn1 [Example 110, 5-{4-[1-(1H-pyrrolo[3,2-c]pyridin-3-yl)cyclobutyl]phenyl}pyrimidin-2-amine]
840 | 8.3 | CC(C)C(C)(c1ccc(-c2cnc(N)nc2)cc1)c1c[nH]c2cc(OC3CCOC3)ccc12 (stereo not drawn) [Example 54, 5-(4-{3-methyl-2-[6-(tetrahydrofuran-3-yloxy)-1H-indol-3-yl]butan-2-yl}phenyl)pyrimidin-2-amine]
590 | 5.7 | Nc1ncc(-c2ccc(C3(c4c(-c5ccc(F)cc5)[nH]c5ccccc45)CCC3)cc2)cn1 [Example 163, 5-(4-{1-[2-(4-fluorophenyl)-1H-indol-3-yl]cyclobutyl}phenyl)pyrimidin-2-amine]
350 | 5.8 | Cc1cc2c(C3(c4ccc(-c5cnc(N)nc5)cc4)CCC3)c[nH]c2cn1 [Example 141, 5-{4-[1-(5-methyl-1H-pyrrolo[2,3-c]pyridin-3-yl)cyclobutyl]phenyl}pyrimidin-2-amine]
> 5000 | 29 | Nc1ncc(-c2ccc(C3(c4nnc(-c5ccccc5)o4)CCC3)cc2)cn1 [Example 93, 5-{4-[1-(5-phenyl-1,3,4-oxadiazol-2-yl)cyclobutyl]phenyl}pyrimidin-2-amine]
3500 | 780 | Nc1ncc(-c2ccc(C3(c4n[nH]c(-c5cccnc5)n4)CCOCC3)cc2)cn1 [Example 74, 5-(4-{4-[5-(pyridin-3-yl)-1H-1,2,4-triazol-3-yl]tetrahydro-2H-pyran-4-yl}phenyl)pyrimidin-2-amine]
230 | 1.4 | Cc1[nH]c2ccccc2c1C(C)(c1ccc(-c2cnc(N)nc2)cc1)C(C)C (stereo not drawn) [Example 86, 5-{4-[3-methyl-2-(2-methyl-1H-indol-3-yl)butan-2-yl]phenyl}pyrimidin-2-amine]
> 5000 | 4.7 | Nc1ncc(-c2ccc(C3(c4cn(CCOCCO)c5ccccc45)CCC3)cc2)cn1 [Example 120, 2-[2-(3-{1-[4-(2-aminopyrimidin-5-yl)phenyl]cyclobutyl}-1H-indol-1-yl)ethoxy]ethanol]
3100 | 9 | Nc1ncc(-c2ccc(C3(c4cn(CC(=O)N5CCOCC5)c5ccccc45)CCC3)cc2)cn1 [Example 148, 2-(3-{1-[4-(2-aminopyrimidin-5-yl)phenyl]cyclobutyl}-1H-indol-1-yl)-1-(morpholin-4-yl)ethanone]
3100 | 120 | Nc1ncc(-c2ccc(C3(c4nnc(-c5ccccc5)[nH]4)CCOCC3)cc2)cn1 [Example 69, 5-{4-[4-(5-phenyl-4H-1,2,4-triazol-3-yl)tetrahydro-2H-pyran-4-yl]phenyl}pyrimidin-2-amine]
> 5000 | 1.5 | Nc1ncc(-c2ccc(C3(c4cn(CCO)c5ccccc45)CCC3)cc2)cn1 [Example 111, 2-(3-{1-[4-(2-aminopyrimidin-5-yl)phenyl]cyclobutyl}-1H-indol-1-yl)ethanol]
340 | 3 | CC(C)C(C)(c1ccc(-c2cnc(N)nc2)cc1)c1c[nH]c2cc(F)c(F)cc12 (stereo not drawn) [Example 67, 5-{4-[2-(5,6-difluoro-1H-indol-3-yl)-3-methylbutan-2-yl]phenyl}pyrimidin-2-amine]
150 | 1.4 | CC(C)C(C)(c1ccc(OCc2ccccn2)cc1)c1cn(C)c2cc(C(=O)Nc3cccnn3)ccc12 (stereo not drawn) [Example 37, 3-[1,2-dimethyl-1-[4-(2-pyridylmethoxy)phenyl]propyl]-1-methyl-N-pyridazin-3-yl-indole-6-carboxamide]
960 | 5 | Cn1cc(C2(c3ccc(-c4cnc(N)nc4)cc3)CCC2)c2cccnc21 [Example 95, 5-{4-[1-(1-methyl-1H-pyrrolo[2,3-b]pyridin-3-yl)cyclobutyl]phenyl}pyrimidin-2-amine]
2100 | 18 | COc1cncc(-c2ccc(C(c3ncc(-c4cnc(N)nc4)s3)C(C)C)cc2)c1 (stereo not drawn) [Example 100]
56 | 7.5 | CC(C)[C@](C)(c1ccc(-c2cnc(N)nc2)nc1)c1cc(-c2cnn(C)c2)on1 [Example 191, 5-(5-{(2R)-3-methyl-2-[5-(1-methyl-1H-pyrazol-4-yl)-1,2-oxazol-3-yl]butan-2-yl}pyridin-2-yl)pyrimidin-2-amine]
